{
  "source": "patent US8962018B2",
  "about": "“Oral formulation of anhydrous olanzapine form I” (Laboratorios Lesvi, S.L., priority 2005, dated 2015)",
  "format_in_all_cases": "physicochemical",
  "key": {"[1]": {"assay": "Stability of olanzapine Form I product under ambient storage conditions", "protocol": "Said method includes in vacuo drying of the solvate at a pressure ranging between 1 and 40 mmHg, preferably between 1 and 20 mmHg, and a temperature controlled between 10 and 50° C., preferably between 20 and 40° C. Said method provides olanzapine Form I in a simple manner, with a high yield of the end product (olanzapine Form I) and with high chemical purity (level of total impurities less than 0.3% as determined by HPLC), together with a high polymorphic purity (Form II<2%)."}, "[2]": {"assay": "X-ray diffraction study of polymorphic form after direct compression", "conditions": "after direct compression into tablets"}, "[3]": {"assay": "Effect of aqueous medium used for the coating on stability of the solid form", "conditions": "aqueous medium used for preparation of the coating"}},
  "data": [
    {"compound": "Cc1cc2c(s1)Nc1ccccc1N=C2N1CCN(C)CC1", "note": "[olanzapine Form I, Olanzapine]", "values": [
      {"measurement": "Stability and colour variations", "setting": "[1]", "result": "remains stable and does not undergo colour variations"},
      {"measurement": "Polymorphic form stability (formation of Form II)", "setting": "[2]", "result": "remains stable without any formation of detectable amounts of the polymorph Form II being observed"},
      {"measurement": "Related substances and polymorphic form after aqueous coating", "setting": "[3]", "result": "no increase of related substances nor change in the polymorphic form"}
    ]}
  ]
}
